Test system: HT-29
Test: Anticancer activity against human HT-29 cells
Assay type: functional, cell-based
Settings: pooled result: one value given for 4 cell lines, strains, targets or settings

- IC50: 0.258 µM
Compound: COc1ccc(C2=C(c3cc(I)c(OC)c(I)c3)C(=O)OC2)cc1

— ChEMBL document CHEMBL6153024, “A novel life for antitumor combretastatins: Recent developments of hybrids, prodrugs, combination therapies, and antibody-drug conjugates” (Eur J Med Chem, 2025)
